Results on 23 compounds are retold here after patent US20100204224A1, “AZACYCLIC COMPOUNDS AS INHIBITORS OF SENSORY NEURONE SPECIFIC SODIUM CHANNELS” (priority 2005, published 2010).

Where a name gives a salt, the structure may show the parent alone.

The first assay deals with T1, human Nav1.8 (hNav1.8) ion channel (Homo sapiens, UniProt Q9Y5Y9).
T1 construct: expressed in transfected cells
T1 sequence (Q9Y5Y9 whole entry): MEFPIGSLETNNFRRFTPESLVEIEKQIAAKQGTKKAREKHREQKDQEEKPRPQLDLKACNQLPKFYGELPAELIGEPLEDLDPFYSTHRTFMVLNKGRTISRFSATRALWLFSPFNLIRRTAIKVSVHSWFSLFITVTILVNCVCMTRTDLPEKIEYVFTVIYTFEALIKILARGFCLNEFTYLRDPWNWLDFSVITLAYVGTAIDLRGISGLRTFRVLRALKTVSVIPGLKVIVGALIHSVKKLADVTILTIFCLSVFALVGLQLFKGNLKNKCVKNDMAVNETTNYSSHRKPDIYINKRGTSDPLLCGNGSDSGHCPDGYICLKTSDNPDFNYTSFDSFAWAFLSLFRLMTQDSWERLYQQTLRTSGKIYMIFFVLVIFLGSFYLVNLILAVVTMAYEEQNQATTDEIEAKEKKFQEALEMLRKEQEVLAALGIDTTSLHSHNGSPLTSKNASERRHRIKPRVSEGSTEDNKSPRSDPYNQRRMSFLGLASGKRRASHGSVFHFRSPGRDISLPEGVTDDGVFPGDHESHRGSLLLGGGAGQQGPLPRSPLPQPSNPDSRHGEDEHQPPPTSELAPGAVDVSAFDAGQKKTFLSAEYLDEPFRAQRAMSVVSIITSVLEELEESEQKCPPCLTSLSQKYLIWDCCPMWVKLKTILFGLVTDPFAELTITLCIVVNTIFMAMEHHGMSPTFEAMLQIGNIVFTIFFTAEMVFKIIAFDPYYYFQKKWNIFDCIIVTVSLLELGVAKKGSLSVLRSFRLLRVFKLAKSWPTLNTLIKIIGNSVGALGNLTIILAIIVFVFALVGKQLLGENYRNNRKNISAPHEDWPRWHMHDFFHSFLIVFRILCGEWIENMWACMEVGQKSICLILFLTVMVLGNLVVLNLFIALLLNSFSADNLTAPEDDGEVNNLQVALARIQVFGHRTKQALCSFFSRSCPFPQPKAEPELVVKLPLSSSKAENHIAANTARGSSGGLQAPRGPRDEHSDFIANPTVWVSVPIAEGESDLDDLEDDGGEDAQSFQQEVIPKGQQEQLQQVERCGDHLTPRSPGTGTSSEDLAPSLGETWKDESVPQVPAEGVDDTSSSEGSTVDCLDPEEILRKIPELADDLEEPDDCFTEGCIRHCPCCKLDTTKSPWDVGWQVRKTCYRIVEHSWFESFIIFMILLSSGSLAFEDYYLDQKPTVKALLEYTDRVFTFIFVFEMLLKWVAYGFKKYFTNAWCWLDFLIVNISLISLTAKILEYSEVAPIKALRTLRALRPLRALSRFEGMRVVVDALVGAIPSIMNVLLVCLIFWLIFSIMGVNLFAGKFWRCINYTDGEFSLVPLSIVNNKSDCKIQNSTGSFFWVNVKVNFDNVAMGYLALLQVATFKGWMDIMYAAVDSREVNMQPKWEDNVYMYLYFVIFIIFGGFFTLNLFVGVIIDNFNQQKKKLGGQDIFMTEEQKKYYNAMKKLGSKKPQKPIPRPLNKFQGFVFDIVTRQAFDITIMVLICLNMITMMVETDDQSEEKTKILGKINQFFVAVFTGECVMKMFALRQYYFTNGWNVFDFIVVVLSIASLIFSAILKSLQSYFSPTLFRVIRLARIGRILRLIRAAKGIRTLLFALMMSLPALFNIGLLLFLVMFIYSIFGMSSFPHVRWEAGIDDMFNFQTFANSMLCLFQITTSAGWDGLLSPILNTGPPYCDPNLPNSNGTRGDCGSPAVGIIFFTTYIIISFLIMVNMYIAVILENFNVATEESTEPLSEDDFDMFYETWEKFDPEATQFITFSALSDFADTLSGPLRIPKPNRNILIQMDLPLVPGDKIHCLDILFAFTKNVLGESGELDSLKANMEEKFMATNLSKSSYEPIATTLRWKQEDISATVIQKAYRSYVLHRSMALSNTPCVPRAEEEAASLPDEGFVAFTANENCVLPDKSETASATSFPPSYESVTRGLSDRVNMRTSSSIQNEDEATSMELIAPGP
As to the kind of experiment: Inhibition of human Nav1.8 stably expressed in SH-SY-5Y cells (membrane potential dye fluorescence assay). In kind it is cell-based. The conditions noted are these: SH-SY-5Y hNav1.8 cells; FLIPR membrane potential dye; 10 μM pyrethroid, 250 nM TTX; test concentration range 100 μM-0.05 μM; read-out: hNav1.8 IC50. The procedure:
Inhibition of Human Nav1.8 stably expressed in SH-SY-5Y Cells
A SH-SY-5Y neuroblastoma cell line stably expressing the human Nav1.8 (hNav1.8) ion channel was constructed. This cell line has been used to develop a medium to high throughput assay for determining the ability of test compounds to inhibit membrane depolarisation mediated via the hNav1.8 channel.
SH-SY-5Y hNav1.8 are grown in adherent monolayer culture using 50:50 Ham's F-12/EMEM tissue culture medium supplemented with 15% (v/v) foetal bovine serum; 2 mM L-glutamine, 1% NEAR and 600 μg·ml^−1 Geneticin sulphate. Cells are removed from the tissue culture flask using trypsin/EDTA and re-plated into black walled, clear bottom 96-well assay plates at 50,000 cells·well^−1 24 hours prior to assay.
On the day of assay the cell assay plates are washed to remove cell culture medium using a sodium free assay buffer (145 mM tetramethyl ammonium chloride; 2 mM calcium chloride; 0.8 mM magnesium chloride hexahydrate; 10 mM HEPES; 10 mM glucose; 5 mM potassium chloride, pH 7.4). Fluorescent membrane potential dye solution (FLIPR™ membrane potential dye, Molecular Devices Corporation), containing 10 μM of a pyrethroid to prevent channel inactivation and 250 nM tetrodotoxin (TTX) to reduce interference from TTX-sensitive sodium channels present in the cell line. Test compound, initially dissolved in dimethyl sulfoxide but further diluted in sodium free buffer, is added to achieve the final test concentration range of 100 μM-0.05 μM.
Cell plates are incubated for 30 minutes at room temperature to allow equilibration of dye and test compound. Plates are then transferred to a fluorescence plate reader for fluorescence measurement using an excitation wavelength of 530 nm whilst measuring fluorescence emission at 565 nm. Baseline fluorescence levels are first determined before the addition of a sodium containing buffer (220 mM sodium chloride; 2 mM calcium chloride; 0.8 mM magnesium chloride hexahydrate; 10 mM HEPES; 10 mM glucose; 5 mM potassium chloride. pH 7.4) to cause membrane depolarisation in those cells where channel block has not been effected (final sodium concentration=72.5 mM). Membrane depolarisation is registered by an increase in fluorescence emission at 565 nm.
The change in fluorescence seen in each test well upon the addition of sodium containing buffer is calculated relative to the baseline fluorescence for that well. This figure is then used for calculating the IC50 for each test compound.
Usually IC50 stands for the concentration that inhibits the measured activity by half. Consider `Cc1ccccc1C(C)N1CC2CC1CN2C(=O)Nc1ccc(-c2ccccc2)cc1` (centres unmarked) [Example 39, 5-(1-o-Tolyl-ethyl)-2,5-diaza-bicyclo[2.2.1]heptane-2-carboxylic acid biphenyl-4-ylamide], for which the IC50 is 1.06 µM.
Regarding `Cc1ccccc1C(C)N1CC2CC1CN2C(=O)Nc1ccc(C(O)c2ccccc2)cc1` (centres unmarked) [Example 68, 5-(1-o-Tolyl-ethyl)-2,5-diaza-bicyclo[2.2.1]heptane-2-carboxylic acid [4-(hydroxy-phenyl-methyl)-phenyl]-amide], the IC50 came out at 6.15 µM.
The same measure, in the same setting: then `Cc1ccccc1C(C)N1CC2CC1CN2C(=O)Nc1ccc(OCC2CCCCO2)cc1` (centres unmarked) [Example 25, 5-(1-o-Tolyl-ethyl)-2,5-diaza-bicyclo[2.2.1]heptane-2-carboxylic acid [4-(tetrahydro-pyran-2-ylmethoxy)-phenyl]-amide], with 5.38 µM; and `COc1ccccc1CC(C)N1CC2CC1CN2C(=O)Nc1ccc(C(F)(F)F)cc1` (centres unmarked) [Example 86, 5-[2-(2-Methoxy-phenyl)-1-methyl-ethyl]-2,5-diaza-bicyclo[2.2.1]heptane-2-carboxylic acid (4-trifluoromethyl-phenyl)-amide], with 0.67 µM.
Consider `CC(c1ccc(C#N)cc1)N1CC2CC1CN2C(=O)Nc1ccc(Oc2ccc(F)cc2)cc1` (centres unmarked) [Example 91, 5-[1-(4-Cyano-phenyl)-ethyl]-2,5-diaza-bicyclo[2.2.1]heptane-2-carboxylic acid [4-(4-fluoro-phenoxy)-phenyl]-amide], for which the IC50 came out at 1.05 µM.
For `CC(c1ccccc1Cl)N1CC2CC1CN2C(=O)c1ccc(Oc2ccc(F)cc2)c(F)c1` (single isomer, unassigned) [Example 177, {5-[1-(2-Chloro-phenyl)-ethyl]-2,5-diaza-bicyclo[2.2.1]hept-2-yl}-[3-fluoro-4-(4-fluoro-phenoxy)-phenyl]-methanone], the IC50 turned out to be 0.74 µM.
In the case of `CC(c1ccccc1Cl)N1CC2CC1CN2C(=O)c1ccc(Oc2cccc(C#N)c2)cc1` (centres unmarked) [Example 174, 3-(4-{5-[1-(2-Chloro-phenyl)-ethyl]-2,5-diaza-bicyclo[2.2.1]heptane-2-carbonyl}-phenoxy)-benzonitrile], the IC50 was 1.4 µM.
Take `Cc1ccccc1C(C)N1CC2CC1CN2C(=O)Nc1ccc(OCc2ccccc2)cc1` (centres unmarked) [Example 31, 5-(1-o-Tolyl-ethyl)-2,5-diaza-bicyclo[2.2.1]heptane-2-carboxylic acid (4-benzyloxy-phenyl)-amide]: the IC50 is 0.6 µM.
In the case of `Cc1ccc(Oc2ccc(NC(=O)N3CC4CC3CN4C(C)c3ccccc3Cl)cc2)cc1` (centres unmarked) [Example 139, 5-[1-(2-Chloro-phenyl)-ethyl]-2,5-diaza-bicyclo[2.2.1]heptane-2-carboxylic acid (4-p-tolyloxy-phenyl)-amide], the IC50 amounted to 1.16 µM.
`Cc1ccc(Oc2ccc(NC(=O)N3CC4CC3CN4C(C)c3ccc(Cl)cc3Cl)cc2)cc1` (centres unmarked) [Example 127, 5-[1-(2,4-Dichloro-phenyl)-ethyl]-2,5-diaza-bicyclo[2.2.1]heptane-2-carboxylic acid (4-p-tolyloxy-phenyl)-amide]: the IC50 was 22.1 µM.
For `CC(c1ccccc1C(F)(F)F)N1CC2CC1CN2C(=O)Nc1ccc(C(F)(F)F)cc1` (single isomer, unassigned) [Example 56, 5-[1-(2-Trifluoromethyl-phenyl)-ethyl]-2,5-diaza-bicyclo[2.2.1]heptane-2-carboxylic acid (4-trifluoromethyl-phenyl)-amide], the IC50 came to 7.91 µM.
Same read-out and setting: the result for `CC(c1ccccc1Br)N1CC2CC1CN2C(=O)c1ccc(Oc2ccccc2)cc1` (centres unmarked) [Example 159, {5-[1-(2-Bromo-phenyl)-ethyl]-2,5-diaza-bicyclo[2.2.1]hept-2-yl}-(4-phenoxy-phenyl)-methanone] reads 14.8 µM.
Consider `O=C(Nc1ccc(C(F)(F)F)cc1)N1CC2CC1CN2C1CCc2ccccc2C1` (centres unmarked) [Example 77, 5-(1,2,3,4-Tetrahydro-naphthalen-2-yl)-2,5-diaza-bicyclo[2.2.1]heptane-2-carboxylic acid (4-trifluoromethyl-phenyl)-amide], for which the IC50 is 0.59 µM.
Consider `CC(Cc1ccc(F)cc1)N1CC2CC1CN2C(=O)Nc1ccc(C(F)(F)F)cc1` (centres unmarked) [Example 80, 5-[2-(4-Fluoro-phenyl)-1-methyl-ethyl]-2,5-diaza-bicyclo[2.2.1]heptane-2-carboxylic acid (4-trifluoromethyl-phenyl)-amide], for which the IC50 worked out at 0.49 µM.
Take `Cc1cc(F)ccc1C(C)N1CC2CC1CN2C(=O)Nc1ccc(Oc2ccc(F)cc2)cc1` (centres unmarked) [Example 75, 5-[1-(4-Fluoro-2-methyl-phenyl)-ethyl]-2,5-diaza-bicyclo[2.2.1]heptane-2-carboxylic acid [4-(4-fluoro-phenoxy)-phenyl]-amide]: the IC50 turned out to be 0.57 µM.
As to `Cc1ccccc1C(C)N1CC2CC1CN2C(=O)Nc1ccc(OCCc2scnc2C)cc1` (centres unmarked) [Example 42, 5-(1-o-Tolyl-ethyl)-2,5-diaza-bicyclo[2.2.1]heptane-2-carboxylic acid {4-[2-(4-methyl-thiazol-5-yl)-ethoxy]-phenyl}-amide], the IC50 turned out to be 2.1 µM.
In the case of `CC(c1ccccc1C(F)(F)F)N1CC2CC1CN2C(=O)Nc1ccc(Oc2ccccc2)cc1` (single isomer, unassigned) [Example 60, 5-[1-(2-Trifluoromethyl-phenyl)-ethyl]-2,5-diaza-bicyclo[2.2.1]heptane-2-carboxylic acid (4-phenoxy-phenyl)-amide], the IC50 was found to be 1.48 µM.
`Cc1ccc(C(C)N2CC3CC2CN3C(=O)Nc2ccc(Oc3ccc(F)cc3)cc2)c(C)c1` (centres unmarked) [Example 116, 5-[1-(2,4-Dimethyl-phenyl)-ethyl]-2,5-diaza-bicyclo[2.2.1]heptane-2-carboxylic acid [4-(4-fluoro-phenoxy)-phenyl]-amide]: the IC50 came out at 0.29 µM.

The same assay, now with this note: hNav1.8 IC50, SH-SY-5Y hNav1.8 cells; FLIPR membrane potential dye; 10 μM pyrethroid, 250 nM TTX; test concentration range 100 μM-0.05 μM.
`CC(c1ccccc1Cl)N1CC2CC1CN2C(=O)Cc1ccc(Oc2cccc(F)c2)cc1` (centres unmarked) [Example 170, 1-{5-[1-(2-Chloro-phenyl)-ethyl]-2,5-diaza-bicyclo[2.2.1]hept-2-yl}-2-[4-(3-fluoro-phenoxy)-phenyl]-ethanone] came in with an IC50 of 1.57 µM.
Consider `Cc1ccccc1C(C)N1CC2CC1CN2C(=O)Nc1ccc(Oc2ccc(F)cc2)cc1` (centres unmarked) [Example 78, 5-(1-o-Tolyl-ethyl)-2,5-diaza-bicyclo[2.2.1]heptane-2-carboxylic acid [4-(4-fluoro-phenoxy)-phenyl]-amide fumarate salt], for which the IC50 was 0.23 µM.
`CC(c1ccc(F)cc1Cl)N1CC2CC1CN2C(=O)Cc1ccc(Oc2ccc(F)cc2)cc1` (single isomer, unassigned) [Example 162, 1-{5-[1-(2-Chloro-4-fluoro-phenyl)-ethyl]-2,5-diaza-bicyclo[2.2.1]hept-2-yl}-2-[4-(4-fluoro-phenoxy)-phenyl]-ethanone] gave an IC50 of 18.3 µM.
`Cc1ccccc1C(C)N1CC2CC1CN2C(=O)Cc1ccc(Oc2cccc(F)c2)cc1` (centres unmarked) [Example 171, 2-[4-(3-Fluoro-phenoxy)-phenyl]-1-[5-(1-o-tolyl-ethyl)-2,5-diaza-bicyclo[2.2.1]hept-2-yl]-ethanone] returned an IC50 of 0.67 µM.
In turn, `Cc1ccccc1C(C)N1CC2CC1CN2C(=O)Nc1ccc(Oc2ccc(F)cc2)cc1` (centres unmarked) [Example 87, 5-(1-o-Tolyl-ethyl)-2,5-diaza-bicyclo[2.2.1]heptane-2-carboxylic acid [4-(4-fluoro-phenoxy)-phenyl]-amide methanesulfonate salt] yielded a half-inhibitory concentration (IC50) of 0.6 µM.
